From US20260285850A1, “SUBSTITUTED OXAZOLIDINONES AND IMIDAZOLINONES AS HERBICIDES” (FMC CORPORATION, priority 2023, published 2026)

Experiments:
Type in all cases: in vivo
[1] = system: oat, wild (wild oat, Avena fatua); experiment: Test A postemergence application, visual injury rating 0-100
Procedure, shortened: (§1)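 Scale 0–100 (no effect to complete control), visual, versus untreated controls, read 10 days after application. Application: preemergence directed spray onto seeded loam–sand soil, or postemergence to young plants; formulation in non-phytotoxic solvent with surfactant.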

[2] = system: galium (catchweed bedstraw, Galium aparine); experiment: as above
Procedure, shortened: as §1

[3] = system: blackgrass (Alopecurus myosuroides); experiment: as above
Procedure, shortened: as §1

[4] = system: palmer (palmer amaranth, palmer pigweed, Amaranthus palmeri); experiment: as above
Procedure, shortened: as §1

[5] = system: soybean (Glycine max); experiment: as above
Procedure, shortened: as §1

[6] = system: ryegrass, Italian (italian ryegrass, Lolium multiflorum); experiment: as above
Procedure, shortened: as §1

[7] = system: kochia (Bassia scoparia); experiment: as above
Procedure, shortened: as §1

[8] = system: barnyardgrass (Echinochloa crus-galli); experiment: as above
Procedure, shortened: as §1

[9] = system: wheat (Triticum aestivum); experiment: as above
Procedure, shortened: as §1

[10] = system: green foxtail (Setaria viridis); experiment: as above
Procedure, shortened: as §1

[11] = system: horseweed (Erigeron canadensis); experiment: as above
Procedure, shortened: as §1

[12] = system: ragweed (common ragweed, Ambrosia artemisiifolia); experiment: as above
Procedure, shortened: as §1

[13] = system: corn (Zea mays); experiment: as above
Procedure, shortened: as §1

[14] = system: oat, wild (wild oat, Avena fatua); experiment: Test A preemergence soil spray, visual injury rating 0-100; details: 10 days
Procedure, shortened: as §1

[15] = system: blackgrass (Alopecurus myosuroides); experiment: as above; details: 10 days
Procedure, shortened: as §1

[16] = system: palmer (palmer amaranth, palmer pigweed, Amaranthus palmeri); experiment: as above; details: 10 days
Procedure, shortened: as §1

[17] = system: soybean (Glycine max); experiment: as above; details: 10 days
Procedure, shortened: as §1

[18] = system: ryegrass, Italian (italian ryegrass, Lolium multiflorum); experiment: as above; details: 10 days
Procedure, shortened: as §1

[19] = system: kochia (Bassia scoparia); experiment: as above; details: 10 days
Procedure, shortened: as §1

[20] = system: barnyardgrass (Echinochloa crus-galli); experiment: as above; details: 10 days
Procedure, shortened: as §1

[21] = system: wheat (Triticum aestivum); experiment: as above; details: 10 days
Procedure, shortened: as §1

[22] = system: green foxtail (Setaria viridis); experiment: as above; details: 10 days
Procedure, shortened: as §1

[23] = system: ragweed (common ragweed, Ambrosia artemisiifolia); experiment: as above; details: 10 days
Procedure, shortened: as §1

[24] = system: corn (Zea mays); experiment: as above; details: 10 days
Procedure, shortened: as §1

[25] = system: sedge, umbrella (small-flower umbrella sedge, Cyperus difformis); experiment: Test B flooded paddy test, visual plant response rating 0-100; details: 250 g ai/ha, Flood, applied to paddy water, evaluated after 13 days
Procedure, shortened: (§2)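 Treatment occurs at the 2-leaf stage by adding compound to floodwater standing 3 cm above the soil, a level kept for the whole test. Plants stay in the greenhouse 13 days before visual comparison with controls.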

[26] = system: ducksalad (Heteranthera limosa); experiment: as above; details: 250 g ai/ha, Flood, applied to paddy water, evaluated after 13 days
Procedure, shortened: as §2

[27] = system: rice (Oryza sativa); experiment: as above; details: 250 g ai/ha, Flood, applied to paddy water, evaluated after 13 days
Procedure, shortened: as §2

[28] = system: barnyardgrass (Echinochloa crusgalli); experiment: as above; details: 250 g ai/ha, Flood, applied to paddy water, evaluated after 13 days
Procedure, shortened: as §2

[29] = 62 g ai/ha, postemergence, 10 days, 0 = no effect, 100 = complete control
[30] = Postemergence, 16 g ai/ha, greenhouse 10 days, 0 no effect, 100 complete control
[31] = 62 g ai/ha, 0 = no effect, 100 = complete control

## C=CC1(C(=O)NC2C=CC(C(=O)OC)C2)CN(c2cc(F)cc(F)c2)C(=O)O1 (single isomer, unassigned) [Compound 168]
[1]; [29]
  Oat, Wild plant response rating (0-100): 0
[1]; [30]
  Oat, Wild plant response rating (0 to 100 scale): 0
[2]; [29]
  Galium plant response rating (0-100): 0
[2]; [30]
  Galium plant response rating (0 to 100 scale): 0
[3]; [29]
  Blackgrass plant response rating (0-100): 0
[3]; [30]
  Blackgrass plant response rating (0 to 100 scale): 0
[4]; [29]
  Pigweed, Palmer plant response rating (0-100): 0
[4]; [30]
  Pigweed, Palmer plant response rating (0 to 100 scale): 0
[5]; [29]
  Soybean plant response rating (0-100): 0
[5]; [30]
  Soybean plant response rating (0 to 100 scale): 0
[6]; [29]
  Ryegrass, Italian plant response rating (0-100): 0
[6]; [30]
  Ryegrass, Italian plant response rating (0 to 100 scale): 0
[7]; [29]
  Kochia plant response rating (0-100): 0
[7]; [30]
  Kochia plant response rating (0 to 100 scale): 0
[8]; [29]
  Barnyardgrass plant response rating (0-100): 20
[8]; [30]
  Barnyardgrass plant response rating (0 to 100 scale): 10
[9]; [29]
  Wheat plant response rating (0-100): 0
[9]; [30]
  Wheat plant response rating (0 to 100 scale): 0
[10]; [29]
  Foxtail, Green plant response rating (0-100): 0
[10]; [30]
  Foxtail, Green plant response rating (0 to 100 scale): 0
[11]; [29]
  Horseweed plant response rating (0-100): 0
[11]; [30]
  Horseweed plant response rating (0 to 100 scale): 0
[12]; [29]
  Ragweed plant response rating (0-100): 0
[12]; [30]
  Ragweed plant response rating (0 to 100 scale): 0
[13]; [29]
  Corn plant response rating (0-100): 10
[13]; [30]
  Corn plant response rating (0 to 100 scale): 0
[14]; 16 g ai/ha, 0 to 100 scale
  Oat, Wild plant response rating: 0
[14]; [31]
  Oat, Wild plant response rating (0-100): 0
[15]; 16 g ai/ha, 0 to 100 scale
  Blackgrass plant response rating: 0
[15]; [31]
  Blackgrass plant response rating (0-100): 0
[16]; 16 g ai/ha, 0 to 100 scale
  Pigweed, Palmer plant response rating: 0
[16]; [31]
  Pigweed, Palmer plant response rating (0-100): 0
[17]; 16 g ai/ha, 0 to 100 scale
  Soybean plant response rating: 0
[17]; [31]
  Soybean plant response rating (0-100): 0
[18]; 16 g ai/ha, 0 to 100 scale
  Ryegrass, Italian plant response rating: 0
[18]; [31]
  Ryegrass, Italian plant response rating (0-100): 0
[19]; 16 g ai/ha, 0 to 100 scale
  Kochia plant response rating: 0
[19]; [31]
  Kochia plant response rating (0-100): 0
[20]; 16 g ai/ha, 0 to 100 scale
  Barnyardgrass plant response rating: 0
[20]; [31]
  Barnyardgrass plant response rating (0-100): 0
[21]; 16 g ai/ha, 0 to 100 scale
  Wheat plant response rating: 0
[21]; [31]
  Wheat plant response rating (0-100): 0
[22]; 16 g ai/ha, 0 to 100 scale
  Foxtail, Green plant response rating: 0
[22]; [31]
  Foxtail, Green plant response rating (0-100): 0
[23]; 16 g ai/ha, 0 to 100 scale
  Ragweed plant response rating: 0
[23]; [31]
  Ragweed plant response rating (0-100): 0
[24]; 16 g ai/ha, 0 to 100 scale
  Corn plant response rating: 0
[24]; [31]
  Corn plant response rating (0-100): 0
[25]
  Plant response rating, Sedge, Umbrella (0 to 100 scale, 0 is no effect and 100 is complete control): 0
[26]
  Plant response rating, Ducksalad (0 to 100 scale, 0 is no effect and 100 is complete control): 0
[27]
  Plant response rating, Rice (0 to 100 scale, 0 is no effect and 100 is complete control): 0
[28]
  Plant response rating, Barnyardgrass (0 to 100 scale, 0 is no effect and 100 is complete control): 0
